Data on 4 molecules can be found in PMC3562233 (PLoS ONE, 2013).

Structures are written as SMILES.

Assay [1] addresses T1, S31N M2 (Influenza A virus, UniProt P0DOF5, S31N). In kind it is cell-based.
The target of assay [2] is T2, V27A M2 (Influenza A virus, UniProt P0DOF5, V27A). In kind it is cell-based.
The target of assay [3] is T2, V27A M2. The format is cell-based, influenza A virus (Udorn strain).
The target in assay [4] is T1, S31N M2. The format is cell-based, influenza A virus (Udorn strain).

In the case of `O=[N+]([O-])c1ccc(CNC23CC4CC(CC(C4)C2)C3)cc1` [Compound 4, 1-adamantyl (4-nitrobenzyl)amine], at S31N M2 [1], the % inhibition (usually the share of the control response that was lost under treatment) at 100 µM in TEVC S31N turned out to be 15.9 ± 0.2%. Also, the “% inhibition at 100 µM in TEVC V27A” value at V27A M2 [2] is on record as 9.7 ± 0.3%.

With `NC1CCC2(CC1)C1CC3CC(C1)CC2C3` (stereo not drawn) [spiroadamantane amine], the “concentration that clearly increased growth of the V27A strain” value on V27A M2 [3] is reported as at least 0.01 µM.

Take `CC1(C)C2CCC1(C)C(N1CCNCC1)C2.Cl.Cl` (stereo not drawn) [Compound 16, 1-(1,7,7-trimethylbicyclo[2.2.1]hept-2-yl)piperazine dihydrochloride]: the “activity against S31N mutant in the yeast assay” value at S31N M2 [4] was “inactive”.

As for `NC12CC3CC(CC(C3)C1)C2` [Amantadine, reference compound], the “activity against V27A mutant in the yeast assay” value on V27A M2 [3] is given as “did not increase the growth”. In addition, the “activity against S31N mutant in the yeast assay” value at S31N M2 [4] was “did not increase the growth”.
